Activity data for 1 compound are collected here from ChEMBL document CHEMBL3352801, “Synthesis and lipid-lowering evaluation of 3-methyl-1H-purine-2,6-dione derivatives as potent and orally available anti-obesity agents” (Eur J Med Chem, 2014).

The source made the active and inactive calls. No cut-off for these calls is given here.

In test [1] the test system is Mus musculus. The test can be described thus: Antiobesity activity in diet-induced obese C57Bl/6 mouse assessed as reduction in LDL level at 150 mg/kg/day, po for 4 weeks administered with high-fat diet (reference value: 0.14 +/- 0.07 mM). In kind it is functional.
In test [2] the test system is Mus musculus. The test can be described thus: Increase in glucose tolerance in diet-induced obese C57Bl/6 mouse assessed as induction of insulin secretion at 150 mg/kg/day, po for 4 weeks by oral glucose tolerance test. It is filed as functional, organism-based.
In test [3] the test system is Mus musculus. The test can be described thus: Antiobesity activity in diet-induced obese C57Bl/6 mouse assessed as reduction in hepatic triglyceride level at 150 mg/kg/day, po for 4 weeks administered with high-fat diet by Oil Red O staining-based histological method. In kind it is functional. The arrangement: scale not given: the % may be the effect or the level left.

Test [4] deals with Mus musculus. The test can be described thus: Antiobesity activity in diet-induced obese C57Bl/6 mouse assessed as change in insulin level at 150 mg/kg/day, po for 4 weeks administered with high-fat diet (reference value: 11.85 +/- 2.6 mU). In kind it is functional.
Test [5] concerns Mus musculus. The test can be described thus: Antiobesity activity in diet-induced obese C57Bl/6 mouse assessed as reduction in HOMA-IR value at 150 mg/kg/day, po for 4 weeks administered with high-fat diet (reference value: 0.94 +/- 0.23 no_unit). In kind it is functional.
Test [6] concerns Mus musculus. The test can be described thus: Antiobesity activity in diet-induced obese C57Bl/6 mouse assessed as reduction in FFA level at 150 mg/kg/day, po for 4 weeks administered with high-fat diet (reference value: 25.07 +/- 3.49 ng/L). In kind it is functional.
In test [7] the test system is Mus musculus. The test can be described thus: Antiobesity activity in diet-induced obese C57Bl/6 mouse assessed as increase in HDL level at 150 mg/kg/day, po for 4 weeks administered with high-fat diet (reference value: 0.60 +/- 0.17 mM). In kind it is functional.
For test [8], the system named is Mus musculus. The test can be described thus: Decrease in insulin resistance in diet-induced obese C57Bl/6 mouse at 150 mg/kg/day, po for 4 weeks by insulin tolerance test. It is filed as functional, organism-based.
Test [9] deals with Mus musculus. The test can be described thus: Antiobesity activity in diet-induced obese C57Bl/6 mouse assessed as increase in HDL level at 150 mg/kg/day, po for 4 weeks administered with high-fat diet (reference value: 1.02 +/- 0.13 mM). In kind it is functional.
Test [10] relates to Mus musculus. The test can be described thus: Antiobesity activity in diet-induced obese C57Bl/6 mouse assessed as reduction in triglyceride level at 150 mg/kg/day, po for 4 weeks administered with high-fat diet (reference value: 0.96 +/- 0.14 mM). In kind it is functional.
For test [11], the system named is Mus musculus. The test can be described thus: Antiobesity activity in diet-induced obese C57Bl/6 mouse assessed as loss of epididymal fat mass at 150 mg/kg/day, po for 4 weeks administered with high-fat diet. In kind it is functional.
The subject of test [12] is Mus musculus. The test can be described thus: Antiobesity activity in diet-induced obese C57Bl/6 mouse assessed as reduction in fasting blood glucose at 150 mg/kg/day, po for 4 weeks administered with high-fat diet (reference value: 5.0 +/- 1.30 mM). It is filed as functional.
Test [13] deals with Mus musculus. The test can be described thus: Antiobesity activity in diet-induced obese C57Bl/6 mouse assessed as loss of liver weight at 150 mg/kg/day, po for 4 weeks administered with high-fat diet. In kind it is functional.
For test [14], the system named is Mus musculus. The test can be described thus: Antiobesity activity in diet-induced obese C57Bl/6 mouse assessed as reduction in LDL level at 150 mg/kg/day, po for 4 weeks administered with high-fat diet (reference value: 0.13 +/- 0.02 mM). It is filed as functional.
Test [15] concerns Mus musculus. The test can be described thus: Antiobesity activity in diet-induced obese C57Bl/6 mouse assessed as reduction in body weight at 150 mg/kg/day, po for 4 weeks administered with high-fat diet. In kind it is functional. Set-up: scale not given: the % may be the effect or the level left.
Test [16] relates to Mus musculus. The test can be described thus: Antiobesity activity in diet-induced obese C57Bl/6 mouse assessed as change in insulin level at 150 mg/kg/day, po for 4 weeks administered with high-fat diet (reference value: 4.31 +/- .82 mU). In kind it is functional.
Test [17] concerns Mus musculus. The test can be described thus: Antiobesity activity in diet-induced obese C57Bl/6 mouse assessed as reduction in FFA level at 150 mg/kg/day, po for 4 weeks administered with high-fat diet (reference value: 19.55 +/- 1.57 ng/L). It is filed as functional.
The test system of test [18] is Mus musculus. The test can be described thus: Antiobesity activity in diet-induced obese C57Bl/6 mouse assessed as reduction in fasting blood glucose at 150 mg/kg/day, po for 4 weeks administered with high-fat diet (reference value: 4.88 +/- 0.75 mM). It is filed as functional.
Test [19] has as its system Mus musculus. The test can be described thus: Antiobesity activity in diet-induced obese C57Bl/6 mouse assessed as reduction in triglyceride level at 150 mg/kg/day, po for 4 weeks administered with high-fat diet (reference value: 0.93 +/- 0.09 mM). It is filed as functional.

Turning to `CN(C)C(=N)NC(=N)N` [METFORMIN], the Activity in the test with Mus musculus [1] is 0.12 mM; with Mus musculus [3] it was 10.73%; in the test with Mus musculus [4], 8.1 mU; with Mus musculus [5], 1.73; with Mus musculus [6] it was 26.05 ng/L; in the test with Mus musculus [7], 0.82 mM. Besides, the Activity in the test with Mus musculus [9] was 1.38 mM; in the test on Mus musculus [10], 1.07 mM; with Mus musculus [11], 22.94%; with Mus musculus [12], 5.32 mM; with Mus musculus [13], 23.2%; in the test on Mus musculus [14], 0.17 mM. Also, the Activity was determined as 19.08% in the test on Mus musculus [15]; 5.48 mU in the test with Mus musculus [16]; 21.56 ng/L in the test on Mus musculus [17]; 7.57 mM with Mus musculus [18]; 0.92 mM with Mus musculus [19]. Moreover, the outcome in the test with Mus musculus [2] and in the test with Mus musculus [8] was Active.
